US20070015840A1, “Use of an alkyl ether of hydroxystilbene for the treatment of dry skin” (L'OREAL, priority 2002, published 2007)

Tested on: immortalized human sebocytes derived from the SZ95 line
Experiment: Lipogenesis in immortalized human sebocytes in culture (SZ95 line), Nile Red fluorescence, total lipids
Format: cell-based
Details: for VARIATION IN LIPIDS (relative to the control): 0.1% DMSO, 24 hours treatment, total lipids, Nile Red
Protocol: Resveratrol trimethyl ether was tested on a model of immortalized human sebocytes in culture, derived from the SZ95 line described in Zouboulis, C. C., Seltmann, H., Neitzel, H. & Orfanos, C. E., Establishment and Characterization of an Immortalized Human Sebaceous Gland Cell Line, J. Invest. Dermatol., 113, 1011-1020 (1999).
The test consisted in measuring the amount of lipids produced by the sebocytes of the line (at confluence), in the presence or absence of an active agent diluted in DMSO, at two different concentrations, such that the final amount of DMSO in the culture medium is 0.1% and the amount of resveratrol trimethyl ether is 0.01% (4×10^−4 M) and 0.001% (4×10^−5 M), respectively. After treatment for 24 hours, the adherent cells are treated with Nile Red (1 μg/ml). The lipid content is then quantified by measuring the fluorescence of the dye (two excitation/emission pairs: 485-540 nm for the neutral lipids and 540-620 nm for the non-neutral lipids). The results are given for the total lipids (combination of the two measurements).
The experiment is performed in sextuplicate (products assayed and control) in 96-well plates and repeated four times.

Oc1ccc(C=Cc2cc(O)cc(O)c2)cc1 [resveratrol]
inhibition of lipogenesis (0.001%, same conditions as resveratrol trimethyl ether (second of 'respectively')): 67% | inhibition of lipogenesis (0.01%, same conditions as resveratrol trimethyl ether (first of 'respectively')): 20% | ability of sebocytes to produce sebum (qualitative statement in the description): decreased

COc1ccc(C=Cc2cc(OC)cc(OC)c2)cc1 [resveratrol trimethyl ether, Resveratrol trimethyl ether]
VARIATION IN LIPIDS (relative to the control) (0.001% (4×10^−5 M) compound): +36% | VARIATION IN LIPIDS (relative to the control) (0.01% (4×10^−4 M) compound): +46%
